In patent publication US20030229114A1, “Pyrroloquinoline quinone drugs as a neuroprotectant and methods of use thereof” (priority 2002, published 2003):
Values joined by “and” are separate entries in the source; they are usually repeats but may differ in a detail not shown here. Equal entries are not always repeated. “Also recorded” adds a separate entry of the source. Where two headings read alike, the source gives them in different places.

Columns and labels:
[1] = system: cultured rat forebrain neurons; test: Survival assay of neuronal cultures (Alamar Blue reduction, 24 hr); details: for EC50: Rattus norvegicus, Neuron, read-out: EC50 of the protective effect against SIN-1 toxicity, SIN-1 1 mM
Experimental: Neuronal cultures were prepared from embryonic day 16 Sprague Dawley rat fetuses using methods similar to those previously described (Dichter, 1978) but modified to produce cultures that contained <1% astrocytes (Rosenberg and Aizenman, 1989; Rosenberg, 1991; Rosenberg et al., 1992; Wang et al., 1998). Cultures were initially plated on poly-L-lysine-coated 24-well plastic plates (Costar, Cambridge, Mass.) using an 80:10:10 (v/v) mixture ofDMEM (Life Technologies 11960-010), Ham's F-12 (Sigma, N-4888), heat-inactivated iron-supplemented calf serum (Hyclone A2151), containing 2 mM glutamine, 25 mM HEPES, 24 U/ml penicillin, and 24 μg/ml streptomycin and maintained in a 5% CO2 (balance air) incubator at 36° C. Cell proliferation was inhibited by exposure to 5 μM cytosine arabinoside at 24 hr in vitro for 72 hr. On the fourth day of culture, the medium was completely removed and replaced with 90% MEM, 10% Nuserum IV (Collaborative Research), 2 mM glutamine, 5 mM HEPES, containing 50 units/ml superoxide dismutase (Boehringer Mannheim, Indianapolis, Ind.), 20 units/ml catalase (Sigma CV-40), total glucose 11 mM, and total sodium bicarbonate 9.3 mM, plus 2% B27 supplement (Life Technologies 17504-036). Medium was not subsequently changed. To prevent evaporation of water, culture dishes were kept in wet dishes containing filter paper that was always kept wet.
In all experiments, 24-well plates were first washed three times in Hank's balanced salt solution (HBSS) containing 0.1% bovine serum albumin (BSA), and then they were placed in Earle's balanced salt solution (EBSS, which is composed of 116 mM NaCl, 5.4 mM KCl, 1.8 mM CaCl2, 0.8 mM MgSO4, 26 mM NaHCO3, 1 mM NaH2PO4 and 5.5 mM D-glucose). Experiments were carried out exclusively in EBSS. […] PQQ was directly dissolved in EBSS.
Survival of cells was determined after 24 hr exposure to the test compounds by assessing the ability of cultures to reduce Alamar Blue (Trek Diagnostic Systems, Inc., Westlake, Ohio) as an index of viability (McGahon et al., 1995). Details of this procedure have been provided elsewhere (Back et al., 1998, 1999). In brief, the test medium was removed after 24 hr, and then replaced with EBSS plus a 1:100 dilution of Alamar Blue. After 2 hr exposure, the medium was diluted 50-fold with water, and the fluorescence intensity was determined in a Hitachi fluorescence spectrophotometer using an excitation wavelength of 530 nm and an emission wavelength of 590 nm. The photomultiplier voltage was set at 700 V. In some experiments, the cell viability determined by Alamar Blue was compared to that determined by the assay of lactate dehydrogenase (LDH) release (Koh and Choi, 1987).

[2] = system: cultured rat forebrain neurons; test: Assay of intracellular ATP in neuronal cultures (firefly luciferase); format: cell-based
Experimental: (§1) Medium was not subsequently changed.
Experiments were carried out exclusively in EBSS. […] PQQ was directly dissolved in EBSS.
The Bioluminescent Somatic Cell Assay kit from Sigma (catalog No. FL-ASC) was used for assay of ATP as previously described (Rosenberg et al., 2000). At selected time points after addition of drug or vehicle, medium was removed, and then replaced with 200 μl of cell lysis agent. After brief agitation, the medium was transferred to microcentrifuge tubes that contained 200 μl of water. The tubes were placed on wet ice until assay. ATP assay mix was used at 25-fold dilution, and 100 μl of the extract was assayed.

[3] = system: cultured rat forebrain neurons; test: Measurement of intracellular cGMP in neuronal cultures (enzyme-linked immunoassay); format: cell-based
Experimental: as §1
Intracellular cGMP was assayed by enzyme-linked immunoassay (Amersham). Cultures were washed three times, and then medium was replaced by EBSS with or without PQQ or SOD. The non-specific phosphodiesterase inhibitor, 3-isobutyl-1-methylxanthine (IBMX) at 100 μM was present in all conditions. DEA/NO, SIN-1 and peroxynitrite were added for 5 min, and then the medium was replaced with 200 μl of releasing reagent provided in the kit. The plates were agitated for 20 min at room temperature, and 20 μl of acetylation reagent was added. After 5 min, 50 μl samples were taken for assay.

[4] = Assay of H2O2 produced by the reaction of SIN-1 with SOD or PQQ; format: biochemical; details: data not shown
Experimental: The method described by Yakes and Van Houten (1997) was used, exploiting the oxidation of o-diansidine dihydrochloride (o-DD, Sigma D-3252) in the presence of horseradish peroxidase (Sigma P-8250). Briefly, SIN-1 (1 mM) was incubated with SOD (100 units/ml) or PQQ (100 μM) in the absence or presence of catalase (100 units/ml) in EBSS for various times. Then o-DD was added to a final concentration of 250 μM and 2.5 units/ml horseradish peroxidase were added. After 1 hr incubation at 37° C., the absorbance at 470 nm was measured. The concentration of H2O2 in samples was calculated based on a standard curve obtained by the reaction of various concentrations of H2O2 with o-DD and horseradish peroxidase.

[5] = system: Oligodendrocytes; test: In vitro white matter injury assay: SIN-1 toxicity in oligodendrocytes; format: cell-based; details: PQQ 100 μM; SIN-1 0.25-2 mM, 2 hr; examined at 24 hr
Experimental: Oligodendrocytes were exposed to various concentrations of SIN-1 (0, 0.25, 0.5, 1 and 2 mM) in EBSS for 2 hr with or without PQQ (100 μM), then washed with HBSS containing 0.1% BSA for 2 times. Oligodendrocytes were then returned to the culture medium. The neurotoxicity was examined at 24 hr.
To illustrate the neuroprotective benefits of the invention, PQQ was used to show oligodendrocytes protection from cell toxicity in an in vitro white matter injury assay. Oligodendrocytes were exposed to various concentrations of SIN-1 (0, 0.25, 0.5, 1 and 2 mM) in EBSS for 2 hr with or without PQQ (100 μM), then washed with HBSS containing 0.1% BSA for 2 times. Oligodendrocytes were then returned to the culture medium. The neurotoxicity was examined at 24 hr.

[6] = ESR, in vitro; Urakami et al (1997); read-out: IC50 in scavenging superoxide; cited from earlier work
[7] = ONOO− 100 μM in the presence of PQQ 100 μM

O=C(O)c1cc(C(=O)O)c2c(n1)C(=O)C(=O)c1cc(C(=O)O)[nH]c1-2 [PQQ, Pyrroloquinoline quinone]
Effect on neurotoxicity induced by NMDA plus DETA/NO ([1]; 24 hr exposure, PQQ 100 μM): fully blocked; also recorded: block | Neuronal survival ([1]; DEA/NO 1 mM in the presence of PQQ 100 μM): 39.7±16.8 % of control | Neuronal survival ([1]; DETA/NO 1 mM in the presence of PQQ 100 μM): 30.7±7.7 % of control | Neuronal survival ([1]; DPT/NO 1 mM in the presence of PQQ 100 μM): 1.7±0.7 % of control | Cell (neuronal) survival [1, 7]: 11±6% and 11±8% | Effect on neurotoxicity caused by nitric oxide donors ([1]; PQQ 100 μM, DEA/NO, DPT/NO, DETA/NO 1 mM): nor did it prevent cell death; also recorded: no protective effect | Effect on neurotoxicity induced by ONOO− (peroxynitrite) ([1]; PQQ 100 μM, ONOO− 100 μM): potentiated; also recorded: significantly potentiates | Effect on neurotoxicity induced by SIN-1 ([1]; PQQ 100 μM, SIN-1 1 mM, no catalase): completely protected; also recorded: completely blocks | EC50 ([1]; representative experiment FIG. 2B): 22.6 µM | EC50 ([1]; three experiments): 15 ± 8.4 µM | Effect on neurotoxicity induced by NMDA plus DETA/NO ([1]; four hour exposure, PQQ 100 μM, NMDA 20 μM, DETA/NO 300 μM): completely blocked; also recorded: blocks | Effect on ATP depletion caused by nitric oxide donors ([2]; PQQ 100 μM, DEA/NO, DPT/NO 1 mM): did not block; also recorded: no effect | Effect on ATP depletion caused by ONOO− ([2]; PQQ 100 μM, ONOO− 100 μM): no effect | Effect on ATP depletion induced by SIN-1 ([2]; PQQ 100 μM, SIN-1 1 mM, 1 hr): significantly blocked | Intracellular ATP ([2]; of control values, 1 hr ONOO− 100 μM with PQQ 100 μM): 42±5.4% and 43.8±4.7% | Intracellular ATP ([2]; of control values, 1 hr SIN-1 1 mM with PQQ 100 μM): 84.4±13.9% and 93±12.6% | Intracellular ATP ([2]; one hour, DEA/NO 1 mM in the presence of PQQ 100 μM): 42.9±19.6% | Intracellular ATP ([2]; one hour, DPT/NO 1 mM in the presence of PQQ 100 μM): 72.7±7.9% | Intracellular cGMP content ([3]; DEA/NO 10 μM in the presence of PQQ 100 μM): 255±38 % of control | Intracellular cGMP content [3, 7]: 142.5±16.2 % of control | Effect on cGMP levels in the presence of DEA/NO ([3]; PQQ 100 μM, DEA/NO 10 μM): did not significantly alter | Effect on cGMP accumulation induced by SIN-1 ([3]; PQQ 100 μM, SIN-1 100 μM): potentiated; also recorded: enhanced | Intracellular cGMP content ([3]; SIN-1 100 μM in the presence of PQQ 100 μM): 267±19.5 % of control and 313.5±45 % of control | Effect on oxidation of o-diansidine by H2O2 [4]: did not reduce | Effect on oligodendrocyte death induced by SIN-1 [5]: completely blocked | IC50 [6]: 0.038 µM
